pEC50: −log10 of the molar value.
Each compound was assayed against T1, human Endothelial Differentiation Gene 1 (EDG1) (Homo sapiens, UniProt P21453) (assay: S1P1 Tango assay - 384 well format). Settings: EDG1-bla/U2OS cells, agonist.
T1 construct: TEV protease site; Gal4-VP16 transcription factor; expressed in transfected cells; host or cells: EDG1-bla/U2OS (Tango GPCR-bla U2OS parental cell line)
Assay type: cell-based
Description: S1P1 Tango assay—384 Well Format
Recombinant EDG1-bla/U2OS cells (contain the human Endothelial Differentiation Gene 1 (EDG1) linked to a TEV protease site and a Gal4-VP16 transcription factor stably integrated into the Tango GPCR-bla U2OS parental cell line) were harvested from growth medium and passaged into assay medium (Invitrogen Freestyle Expression Medium). The cells were starved for 24 hours at 37° C., 5% CO2, harvested and resuspended in assay medium at a density of ˜200,000 cells/ml. All test compounds were dissolved in DMSO at a concentration of 10 mM and were prepared in 100% DMSO to provide 10 point dose response curves. Test compounds prepared by Bravo (Velocity11) were added to wells in columns 2-11 and 13-22; DMSO was added to wells in columns 12 and 23 as unstimulated controls and assay medium was added to wells in columns 1 and 24 as cell-free controls. An S1P1 agonist was added to wells in row 2, columns 2-11 as stimulated controls and test compounds were added to wells in row 2, columns 13-22 and rows 3-15, columns 2-11/13-22 (row 1 and 16 were empty and not used). Compounds in solution were added to the assay plate (Greiner 781090) using an Echo (Labcyte) dose-response program (50 nl/well). The unstimulated and cell-free controls were loaded with 50 nl/well pure DMSO to ensure that the DMSO concentration was constant across the plate for all assays.
50 μl of the cell suspension was added to each well in columns 2-23 of the plate (˜10,000 cells per well). 50 μl of assay medium was added to each well in the cell-free controls (columns 1 and 24). The cells were incubated overnight at 37° C./5% CO2.
10 μl of 6× substrate mixture (LiveBLAzer™-FRET B/G substrate (CCF4-AM) Cat #K1096 from Invitrogen, Inc.) was added to each well using Bravo and the plates incubated at room temperature for 2 h in the dark. The plate was finally read on EnVision using one excitation channel (409 nm) and two emission channels (460 nm and 530 nm).
The blue/green emission ratio (460 nm/530 nm) was calculated for each well, by dividing the background-subtracted Blue emission values by the background-subtracted Green emission values. The dose response curve is based on sigmoidal dose-response model. All ratio data was normalized based upon the maximum emission ratio of positive control and minimum emission ratio of negative control (DMSO) on each plate. The intrinsic activity (IA) of each compound would be the normalized percentage of its maximum response after curve fitting.

T1 sequence (P21453 whole entry, the tested form may be a part): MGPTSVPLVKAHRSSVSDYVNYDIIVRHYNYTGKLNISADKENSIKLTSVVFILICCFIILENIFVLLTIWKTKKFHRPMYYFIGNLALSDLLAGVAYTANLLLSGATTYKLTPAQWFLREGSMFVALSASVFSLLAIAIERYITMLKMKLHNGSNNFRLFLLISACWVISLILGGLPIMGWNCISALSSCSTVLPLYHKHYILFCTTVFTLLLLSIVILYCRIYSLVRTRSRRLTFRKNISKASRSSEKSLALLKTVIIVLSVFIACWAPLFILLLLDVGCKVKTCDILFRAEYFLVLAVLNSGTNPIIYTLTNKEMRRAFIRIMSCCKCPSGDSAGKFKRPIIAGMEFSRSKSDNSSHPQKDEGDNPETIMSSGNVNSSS

`Cc1c(-c2noc(-c3ccc(OC(C)C)c(Cl)c3)n2)ccnc1CCCC(=O)O` [Example 7, 4-[4-(5-{3-chloro-4-[(1-methylethyl)oxy]phenyl}-1,2,4-oxadiazol-3-yl)-3-methyl-2-pyridinyl]butanoic acid] and `COc1c(CCCC(=O)O)cccc1-c1noc(-c2ccc(OC(C)C)c(Cl)c2)n1` [Example 17, 4-[3-(5-{3-chloro-4-[(1-methylethyl)oxy]phenyl}-1,2,4-oxadiazol-3-yl)-2-(methyloxy)phenyl]butanoic acid] cannot be ordered by pEC50: ≥ 8.00 for the first, ≥ 9.00 for the second.

`CC(C)Oc1ncc(-c2nc(-c3cccc(CCC(=O)O)c3Cl)no2)cc1Cl` [Example 8, 3-[2-chloro-3-(5-{5-chloro-6-[(1-methylethyl)oxy]-3-pyridinyl}-1,2,4-oxadiazol-3-yl)phenyl]propanoic acid] and `CCc1c(CCCC(=O)O)cccc1-c1noc(-c2cnc(OC(C)C)c(Cl)c2)n1` [Example 14, 4-[3-(5-{5-chloro-6-[(1-methylethyl)oxy]-3-pyridinyl}-1,2,4-oxadiazol-3-yl)-2-ethylphenyl]butanoic acid] cannot be ordered by pEC50: ≥ 8.00 for the first, ≥ 8.00 for the second.

`CC(C)Oc1ccc(-c2nc(-c3cccc(CCCC(=O)O)c3Cl)no2)cc1C#N` [Example 11, 4-[2-chloro-3-(5-{3-cyano-4-[(1-methylethyl)oxy]phenyl}-1,2,4-oxadiazol-3-yl)phenyl]butanoic acid] and `CC(C)Oc1ccc(-c2nc(-c3cccc(CCCCCC(=O)O)c3Cl)no2)cc1C#N` [Example 12, 6-[2-chloro-3-(5-{3-cyano-4-[(1-methylethyl)oxy]phenyl}-1,2,4-oxadiazol-3-yl)phenyl]hexanoic acid] cannot be ordered by pEC50: ≥ 9.00 for the first, ≥ 9.00 for the second.

`CCc1c(CCCC(=O)O)cccc1-c1noc(-c2ccc(OC(C)C)c(C#N)c2)n1` [Example 15, 4-[3-(5-{3-cyano-4-[(1-methylethyl)oxy]phenyl}-1,2,4-oxadiazol-3-yl)-2-ethylphenyl]butanoic acid] and `CCc1c(CCCC(=O)O)cccc1-c1noc(-c2ccc(OC(C)C)c(Cl)c2)n1` [Example 28, 4-[3-(5-{3-chloro-4-[(1-methylethyl)oxy]phenyl}-1,2,4-oxadiazol-3-yl)-2-ethylphenyl]butanoic acid] cannot be ordered by pEC50: ≥ 9.00 for the first, ≥ 9.00 for the second.

`CC(C)Oc1ccc(-c2nc(-c3ccnc(CCC(=O)O)c3)no2)cc1C#N` [Example 20, 3-[4-(5-{3-cyano-4-[(1-methylethyl)oxy]phenyl}-1,2,4-oxadiazol-3-yl)-2-pyridinyl]propanoic acid] and `CC(C)Oc1ccc(-c2nc(-c3ccc(F)c(CCC(=O)O)c3)no2)cc1C#N` [Example 22, 3-[5-(5-{3-cyano-4-[(1-methylethyl)oxy]phenyl}-1,2,4-oxadiazol-3-yl)-2-fluorophenyl]propanoic acid] cannot be ordered by pEC50: ≥ 6.00 for the first, ≥ 6.00 for the second.

`CC(C)Oc1ccc(-c2nc(-c3ccc(F)c(CCCC(=O)O)c3)no2)cc1C#N` [Example 23, 4-[5-(5-{3-cyano-4-[(1-methylethyl)oxy]phenyl}-1,2,4-oxadiazol-3-yl)-2-fluorophenyl]butanoic acid] and `CC(C)Oc1ccc(-c2nc(-c3cccc(CCCC(=O)O)c3C(F)(F)F)no2)cc1C#N` [Example 25, 4-[3-(5-{3-cyano-4-[(1-methylethyl)oxy]phenyl}-1,2,4-oxadiazol-3-yl)-2-(trifluoromethyl)phenyl]butanoic acid] cannot be ordered by pEC50: ≥ 6.00 for the first, ≥ 7.00 for the second.

`CC(C)Oc1ccc(-c2nc(-c3cccc(CCC(=O)O)c3C(F)(F)F)no2)cc1C#N` [Example 24, 3-[3-(5-{3-cyano-4-[(1-methylethyl)oxy]phenyl}-1,2,4-oxadiazol-3-yl)-2-(trifluoromethyl)phenyl]propanoic acid] and `CCc1c(CCC(=O)O)cccc1-c1noc(-c2ccc(OC(C)C)c(Cl)c2)n1` [Example 29, 3-[3-(5-{3-chloro-4-[(1-methylethyl)oxy]phenyl}-1,2,4-oxadiazol-3-yl)-2-ethylphenyl]propanoic acid] cannot be ordered by pEC50: ≥ 8.00 for the first, ≥ 9.00 for the second.

Source: patent US20120101134A1, “5-MEMBERED HETEROARYL DERIVATIVES USED AS SPHINGOSINE 1-PHOSPHATE RECEPTOR AGONISTS” (GLAXO GROUP LIMITED, priority 2009, published 2012)
